Results on 24 compounds are retold here after US12187742B2 (XRAD Therapeutics, Inc., priority 2018, dated 2025).

Molecules are shown by their SMILES.

ATM, sequence (Q13315 whole entry): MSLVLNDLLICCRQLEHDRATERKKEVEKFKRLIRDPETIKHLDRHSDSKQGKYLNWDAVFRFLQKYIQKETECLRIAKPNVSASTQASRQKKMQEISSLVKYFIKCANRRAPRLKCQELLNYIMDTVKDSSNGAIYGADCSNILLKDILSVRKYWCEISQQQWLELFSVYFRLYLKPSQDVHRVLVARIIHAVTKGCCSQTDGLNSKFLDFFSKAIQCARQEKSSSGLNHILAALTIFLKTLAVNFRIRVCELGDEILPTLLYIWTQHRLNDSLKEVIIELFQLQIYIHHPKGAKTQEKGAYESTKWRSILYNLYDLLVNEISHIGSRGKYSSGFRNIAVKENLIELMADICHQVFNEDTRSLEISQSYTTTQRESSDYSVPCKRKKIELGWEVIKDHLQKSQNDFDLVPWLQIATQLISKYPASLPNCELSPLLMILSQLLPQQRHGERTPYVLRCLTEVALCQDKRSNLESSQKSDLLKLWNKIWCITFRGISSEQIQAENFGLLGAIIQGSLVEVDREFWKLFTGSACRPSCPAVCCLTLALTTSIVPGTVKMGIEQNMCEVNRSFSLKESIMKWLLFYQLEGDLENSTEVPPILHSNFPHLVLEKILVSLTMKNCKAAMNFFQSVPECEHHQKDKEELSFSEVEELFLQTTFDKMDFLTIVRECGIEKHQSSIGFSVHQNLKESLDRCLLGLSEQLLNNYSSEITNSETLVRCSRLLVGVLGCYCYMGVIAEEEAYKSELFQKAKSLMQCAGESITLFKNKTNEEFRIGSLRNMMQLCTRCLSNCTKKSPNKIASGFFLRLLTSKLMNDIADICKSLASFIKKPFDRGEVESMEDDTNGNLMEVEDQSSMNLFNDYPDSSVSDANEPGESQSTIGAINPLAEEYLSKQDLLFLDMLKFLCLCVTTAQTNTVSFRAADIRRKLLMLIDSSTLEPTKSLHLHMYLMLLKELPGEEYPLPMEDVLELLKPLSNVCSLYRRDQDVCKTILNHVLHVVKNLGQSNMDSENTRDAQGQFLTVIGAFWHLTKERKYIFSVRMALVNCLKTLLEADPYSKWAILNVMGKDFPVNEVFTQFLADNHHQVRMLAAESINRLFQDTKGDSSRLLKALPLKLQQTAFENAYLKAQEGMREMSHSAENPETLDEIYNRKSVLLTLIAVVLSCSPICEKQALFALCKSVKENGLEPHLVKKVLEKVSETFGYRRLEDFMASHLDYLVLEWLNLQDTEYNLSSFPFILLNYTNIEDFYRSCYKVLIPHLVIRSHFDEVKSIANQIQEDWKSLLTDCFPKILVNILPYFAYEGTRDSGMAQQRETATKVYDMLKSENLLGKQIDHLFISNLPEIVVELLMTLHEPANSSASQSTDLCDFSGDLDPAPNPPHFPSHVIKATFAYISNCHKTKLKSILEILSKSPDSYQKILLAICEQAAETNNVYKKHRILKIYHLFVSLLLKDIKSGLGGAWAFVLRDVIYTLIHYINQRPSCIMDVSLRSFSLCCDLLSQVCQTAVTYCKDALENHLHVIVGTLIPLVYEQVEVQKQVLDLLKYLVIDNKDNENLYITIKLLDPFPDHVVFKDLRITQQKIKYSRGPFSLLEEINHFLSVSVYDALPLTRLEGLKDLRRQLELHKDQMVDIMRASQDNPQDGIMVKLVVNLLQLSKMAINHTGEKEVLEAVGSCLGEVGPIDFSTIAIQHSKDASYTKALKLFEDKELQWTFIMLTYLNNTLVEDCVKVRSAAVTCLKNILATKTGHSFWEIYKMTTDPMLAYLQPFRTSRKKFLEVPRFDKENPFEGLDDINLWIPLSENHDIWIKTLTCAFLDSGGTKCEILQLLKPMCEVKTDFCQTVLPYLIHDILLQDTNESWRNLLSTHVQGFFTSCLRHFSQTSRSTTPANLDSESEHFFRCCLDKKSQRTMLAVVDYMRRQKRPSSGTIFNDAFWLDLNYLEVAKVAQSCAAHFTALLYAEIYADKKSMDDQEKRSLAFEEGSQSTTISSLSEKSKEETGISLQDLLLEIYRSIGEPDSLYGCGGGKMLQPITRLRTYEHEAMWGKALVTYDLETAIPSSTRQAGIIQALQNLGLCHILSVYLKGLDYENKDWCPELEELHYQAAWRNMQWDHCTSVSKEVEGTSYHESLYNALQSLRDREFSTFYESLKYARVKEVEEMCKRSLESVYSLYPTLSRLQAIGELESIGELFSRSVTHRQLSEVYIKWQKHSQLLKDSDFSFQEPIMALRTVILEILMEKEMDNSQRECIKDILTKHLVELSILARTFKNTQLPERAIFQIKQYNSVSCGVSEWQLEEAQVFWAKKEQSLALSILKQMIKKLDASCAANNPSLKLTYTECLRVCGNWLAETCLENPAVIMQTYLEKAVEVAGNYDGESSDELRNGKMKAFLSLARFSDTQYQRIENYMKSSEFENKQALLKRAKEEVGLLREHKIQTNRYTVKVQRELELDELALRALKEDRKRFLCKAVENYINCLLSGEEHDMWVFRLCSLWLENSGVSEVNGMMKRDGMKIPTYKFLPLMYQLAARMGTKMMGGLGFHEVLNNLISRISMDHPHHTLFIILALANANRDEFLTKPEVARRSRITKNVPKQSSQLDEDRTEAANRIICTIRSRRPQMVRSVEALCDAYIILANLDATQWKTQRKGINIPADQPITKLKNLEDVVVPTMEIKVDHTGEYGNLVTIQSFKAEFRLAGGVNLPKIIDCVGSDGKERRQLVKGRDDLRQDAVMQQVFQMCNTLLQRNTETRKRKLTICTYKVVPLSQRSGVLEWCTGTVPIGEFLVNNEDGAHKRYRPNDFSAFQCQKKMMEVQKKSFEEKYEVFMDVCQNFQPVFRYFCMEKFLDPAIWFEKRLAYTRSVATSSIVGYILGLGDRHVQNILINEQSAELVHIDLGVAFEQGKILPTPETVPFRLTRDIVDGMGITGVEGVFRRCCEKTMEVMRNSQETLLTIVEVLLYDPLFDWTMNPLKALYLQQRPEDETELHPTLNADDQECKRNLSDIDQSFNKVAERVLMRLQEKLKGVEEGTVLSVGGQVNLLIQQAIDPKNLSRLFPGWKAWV

The assay concerns the target ATM (Homo sapiens (Human), UniProt Q13315). The assay can be described thus: ATM in Cell Western Assay (pKAP1 in etoposide-treated MCF-7 cells). The following applies: MCF-7 cells, etoposide 100 μM, 1 hr, pKAP1 readout. The class given is cell-based. The method, then: Assay of Compounds ATM and DNA-PK Inhibition
ATM in Cell Western Assay:
Next day, add corresponding concentration of compounds using pin tool (Echo 550), the final top concentration is 1 μM, 3-fold series dilution, total 10 doses. Then add etoposide (Sigma, #E1383) to a final concentration of 100 μM. Incubate at 37° C. for 1 hr. Fix cells by adding 25 μL of fixing solution (8% paraformaldehyde) for 20 minutes at ambient temperature. Permeabilize cells for 5 washes with 1×PBS (phosphate buffered saline) containing 0.1% Triton X-100; each wash is for 5 minutes. […] The next day, wash the plate 5 times with 1×PBST (1×PBS containing 0.1% Tween-20). […] Wash the cells for 5 times with 1×PBST (1×PBS containing 0.1% Tween-20) at ambient temperature, using gentle shaking in the dark. After the last wash
remove wash solution, turn plate upside down onto a thin paper towel and centrifuge at 1000 rpm for 1 min to absorb all wash buffer. Clean the bottom of plate with moist lint free paper. Scan plate immediately using ODYSSEY CLx (LI-COR) for the best results.
`CN(C)CCCOc1ncc(-c2ccc3ncc4c(c3c2)C2(CCC2)C(=O)N4C)cc1NS(=O)(=O)N(C)Cc1ccccc1` [Example 182, N-Benzyl-N-methyl({2-[3-(dimethylamino)propoxy]-5-{3′-methyl-2′-oxo-2′,3′-dihydrospiro[cyclobulane-1,1′-pyrrolo[2,3-c]quinoline]-8′-yl}pyridin-3-yl}amino)sulfonamide] had an IC50 of 1 to 100 nM. Compound `Cc1ccc(S(=O)(=O)N(C)c2cc(-c3ccc4ncc5c(c4c3)C3(CCC3)C(=O)N5C)cnc2OCCCN2CCCCC2)cn1` [Example 191, N,6-Dimethyl-N-(5-(3′-methyl-2′-oxo-2′,3′-dihydrospiro [cyclobulane-1,1′-pyrrolo[2,3-c]quinolin]-8′-yl)-2-(3-(piperidin-1-yl)propoxy)pyridin-3-yl)pyridine-3-sulfonamide 2,2,2-trifluoroacetate] came in with an IC50 of more than 100 nM.

As for `COc1ncc(-c2ccc3ncc4c(c3c2)C2(CC2)C(=O)N4C)cc1CS(=O)(=O)c1ccc(C)nc1` [Example 209, 8′-(6-Methoxy-5-(((6-methylpyridin-3-yl)sulfonyl)methyl)pyridin-3-yl)-3′-methylspiro[cyclopropane-1,1′-pyrrolo[2,3-c]quinolin]-2′(3′-H)-one], the IC50 was more than 100 nM.

For `Cc1ccc(S(=O)(=O)Nc2cc(-c3ccc4ncc5c(c4c3)C3(CCC3)C(=O)N5C)cnc2OCCCN2C(C)CCCC2C)cn1` (stereo not drawn) [Example 210, N-(2-(3-(2,6-Dimethylpiperidin-1-yl)propoxy)-5-(3′-methyl-2′-oxo-2′,3′-dihydrospiro[cyclobutane-1,1′-pyrrolo[2,3-c]quinolin]-8′-yl)pyridin-3-yl)-6-methylpyridine-3-sulfonamide], the IC50 lay in the range of 1 to 100 nM. Then `Cc1ccc(S(=O)(=O)Nc2cc(-c3ccc4ncc5c(c4c3)C3(CCC3)C(=O)N5C)cnc2OCCCN2C(C)(C)CCCC2(C)C)cn1` [Example 211, 6-Methyl-N-(5-(3′-methyl-2′-oxo-2′,3′-dihydrospiro[cyclobulane-1,1′-pyrrolo[2,3-c]quinolin]-8′-yl)-2-(3-(2,2,6,6-tetramethylpiperidin-1-yl)propoxy)pyridin-3-yl)pyridine-3-sulfonamide], with more than 100 nM.

With `[2H]C([2H])(COc1ncc(-c2ccc3ncc4c(c3c2)C2(CCC2)C(=O)N4C)cc1NS(=O)(=O)c1ccc(C)nc1)CN1CCCCC1` [Example 219, 6-Methyl-N-(5-(3′-methyl-2′-oxo-2′,3′-dihydrospiro[cyclobulane-1,1′-pyrrolo[2,3-c]quinolin]-8′-yl)-2-(3-(piperidin-1-yl)propoxy-2,2-d2)pyridin-3-yl)pyridine-3-sulfonamide], the half-inhibitory concentration (IC50) was more than 100 nM. Next, `CN(CCCOc1ncc(-c2ccc3ncc4c(c3c2)C2(CCC2)C(=O)N4C)cc1NS(C)(=O)=O)CC(F)(F)F` [Example 231]: 1 to 100 nM; `CN(C)CCCOc1ncc(-c2ccc3ncc4c(c3c2)C2(CCC2)C(=O)N4C)cc1S(=O)(=O)N(C)C` [Example 234, 2-(3-(Dimethylamino)propoxy)-N,N-dimethyl-5-(3′-methyl-2′-oxo-2′,3′-dihydrospiro[cyclobutane-1,1′-pyrrolo[2,3-c]quinolin]-8′-yl)pyridine-3-sulfonamide]: 1 to 100 nM; `CN1C(=O)C2(CCC2)c2c1cnc1ccc(-c3cnc(OCCCO)c(NS(C)(=O)=O)c3)cc21` [Example 254, N-(2-(3-Hydroxypropoxy)-5-(3′-methyl-2′-oxo-2′,3′-dihydrospiro[cyclobutane-1,1′-pyrrolo[2,3-c]quinolin]-8′-yl)pyridin-3-yl)methanesulfonamide]: more than 100 nM. Then `CN(C)CCCOc1ncc(-c2ccc3ncc4c(c3c2)C2(CCC2)C(=O)N4C)cc1S(N)(=O)=O` [Example 255, 2-(3-(Dimethylamino)propoxy)-5-(3′-methyl-2′-oxo-2′,3′-dihydrospiro[cyclobutane-1,1′-pyrrolo[2,3-c]quinolin]-8′-yl)pyridine-3-sulfonamide], with 1 to 100 nM; and `CN1C(=O)C2(CCC2)c2c1cnc1ccc(-c3cnc(OCC(F)(F)CN4CCCCC4)c(NS(C)(=O)=O)c3)cc21` [Example 256, N-(2-(2,2-Difluoro-3-(piperidin-1-yl)propoxy)-5-(3′-methyl-2′-oxo-2′,3′-dihydrospiro[cyclobutane-1,1′-pyrrolo[2,3-c]quinolin]-8′-yl)pyridin-3-yl)methanesulfonamide], with more than 100 nM; and `CN(C)CCCOc1ncc(-c2ccc3ncc4c(c3c2)C2(CC(=O)C2)C(=O)N4C)cc1NS(C)(=O)=O` [Example 258, N-(2-(3-(Dimethylamino)propoxy)-5-(3′-methyl-2′,3′-dioxo-2′,3′-dihydrospiro [cyclobutane-1,1′-pyrrolo[2,3-c]quinolin]-8′-yl)pyridin-3-yl)methanesulfonamide], with 1 to 100 nM. Then `CN(C)CCCNc1ncc(-c2ccc3ncc4c(c3c2)C2(CCC2)C(=O)N4C)cc1NS(C)(=O)=O` [Example 259, N-(2-((3-(Dimethylamino)propyl)amino)-5-(3′-methyl-2′-oxo-2′,3′-dihydrospiro[cyclobutane-1,1′-pyrrolo[2,3-c]quinolin]-8′-yl)pyridin-3-yl)methanesulfonamide], with 1 to 100 nM; and `CC1CCN(c2ncc(-c3ccc4ncc5c(c4c3)C3(CCC3)C(=O)N5C)cc2NS(C)(=O)=O)CC1` [Example 260, N-(5-(3′-Methyl-2′-oxo-2′,3′-dihydrospiro[cyclobutane-1,1′-pyrrolo[2,3-c]quinolin]-8′-yl)-2-(4-methylpiperidin-l-yl)Pyridin-3-yl)methanesulfonamide], with more than 100 nM; and `CN(C)CCCOc1ncc(-c2ccc3ncc4c(c3c2)C2(CCC2)C(=O)N4C)cc1NS(=O)(=O)CCN1C(=O)c2ccccc2C1=O` [Example 261, N-(2-(3-(dimethylamino)propoxy)-5-(3′-methyl-2′-oxo-2′,3′-dihydrospiro[cyclobutane-1,1′-pyrrolo[2,3-c]quinolin]-8′-yl)pyridin-3-yl)-2-(1,3-dioxoisoindolin-2-yl)ethane-1-sulfonamide], with 1 to 100 nM.

Take `CN(C)CCCOc1ncc(-c2ccc3ncc4c(c3c2)C2(CCC2)C(=O)N4C)nc1NS(C)(=O)=O` [Example 263, N-(3-(3-(Dimethylamino)propoxy)-6-(3′-methyl-2′-oxo-2′,3′-dihydrospiro [cyclobutane-1,1′-pyrrolo[2,3-c]quinolin]-8′-yl)pyrazin-2-yl) methanesulfonamide]: the concentration for half-maximal inhibition (IC50) fell in the range of 1 to 100 nM. Then `CN(C)CCOCc1ncc(-c2ccc3ncc4c(c3c2)C2(CCC2)C(=O)N4C)cc1NS(C)(=O)=O` [Example 265, N-(2-((2-(Dimethylamino)ethoxy)methyl)-5-(3′-methyl-2′-oxo-2′,3′-dihydrospiro [cyclobutane-1,1′-pyrrolo[2,3-c]quinolin]-8′-yl)pyridin-3-yl)methanesulfonamide], with more than 100 nM. Regarding `CNS(=O)(=O)c1cc(-c2ccc3ncc4c(c3c2)C2(CCC2)C(=O)N4C)cnc1OCCCN(C)C` [Example 267, 2-(3-(Dimethylamino)propoxy)-N-methyl-5-(3′-methyl-2′-oxo-2′,3′-dihydrospiro[cyclobutane-1,1′-pyrrolo[2,3-c]quinolin]-8′-yl) pyridine-3-sulfonamide], the IC50 lay within 1 to 100 nM.

As for `CN1C(=O)C2(CCC2)c2c1cnc1ccc(-c3cnc(CCCCN4CCCCC4)c(NS(C)(=O)=O)c3)cc21` [Example 269, N-(5-(3′-Methyl-2′-oxo-2′,3′-dihydrospiro[cyclobutane-1,1′-pyrrolo[2,3-c]quinolin]-8′-yl)-2-(4-(piperidin-1-yl)butyl)pyridin-3-yl)methanesulfonamide], the IC50 is 1 to 100 nM. Then `CN(C)c1ccc(-c2ncc(-c3ccc4ncc5c(c4c3)C3(CCC3)C(=O)N5C)cc2NS(C)(=O)=O)cn1` [Example 271, N-(6′-(Dimethylamino)-5-(3′-methyl-2′-oxo-2′,3′-dihydrospiro[cyclobutane-1,1′-pyrrolo[2,3-c]quinolin]-8′-yl)-[2,3′-bipyridin]-3-yl)methanesulfonamide], with 1 to 100 nM.

In turn, `CN(C)CCCOc1ncc(-c2ccc3ncc4c(c3c2)C2(CCC2)C(=O)N4C)cc1NS(=O)(=O)CS(C)(=O)=O` [Example 274, N-(2-(3-(Dimethylamino)propoxy)-5-(3′-methyl-2′-oxo-2′,3′-dihydrospiro[cyclobutane-1,1′-pyrrolo[2,3-c]quinolin]-8′-yl)pyridin-3-yl)-1-(methylsulfonyl)methanesulfonamide] came in with an IC50 of 1 to 100 nM. Take `CCc1ncc(S(=O)(=O)Nc2cc(-c3ccc4ncc5c(c4c3)C3(CCC3)C(=O)N5C)cnc2OCCNC)s1` [Example 275, 2-Ethyl-N-(5-(3′-methyl-2′-oxo-2′,3′-dihydrospiro[cyclobutane-1,1′-pyrrolo[2,3-c]quinolin]-8′-yl)-2-(2-(methylamino)ethoxy)pyridin-3-yl)thiazole-5-sulfonamide]: the IC50 was 1 to 100 nM. Then `CN1CC=C(c2ncc(-c3ccc4ncc5c(c4c3)C3(CCC3)C(=O)N5C)cc2NS(C)(=O)=O)CC1` [Example 276, N-(1′-Methyl-5-(3′-methyl-2-oxo-2′,3′-dihydrospiro[cyclobutane-1,1′-pyrrolo[2,3-c]quinolin]-8′-yl)-1′,2′,3′,6′-tetrahydro-[2,4′-bipyridin]-3-yl)methanesulfonamide], with 1 to 100 nM; and `CN1C(=O)C2(CCC2)c2c1cnc1ccc(-c3cnc(OCC(CO)N4CCCCC4)c(NS(C)(=O)=O)c3)cc21` (stereo not drawn) [Example 284, N-(2-(3-Hydroxy-2-(piperidin-1-yl)propoxy)-5-(3′-methyl-2′-oxo-2′,3′-dihydrospiro[cyclobutane-1,1′-pyrrolo[2,3-c]quinolin]-8′-yl)pyridin-3-yl)methanesulfonamide], with more than 100 nM.

Usually IC50 stands for the midpoint of a concentration-inhibition curve. A low value points to greater potency.
